Measured values taken from patent publication US20090118253A1, “COMPOSITIONS AND METHODS FOR TREATING DYSFUNCTIONAL UTERINE BLEEDING” (REPROS THERAPEUTICS INC., priority 2007, published 2009).

Assays:
[1] = tested on: progesterone-induced endometrial glandular proliferation in rabbit uterus; assay: anti-McGinty and anti-Clauberg assays in the rabbit uterus; type: in vivo
From the text: Also given in Table 1 are the relative biological activities of the same compounds in the rabbit uterus by the anti-McGinty and anti-Clauberg assays. Compound CDB-2914 (listed at the end of the Table) was used as the control or reference compound (rabbit Biological Activity=1.00) for these experiments because results of experiments using CDB-2914 have been published before (Hild-Petito et al., 1996; Passaro et al., 1997; Reel et al., 1998; Lamer et al., 2000). For the anti-McGinty test, immature female rabbits received a subcutaneous injection of 5 μg estradiol in 10% ethanol/sesame oil daily for 6 consecutive days. On day 7, animals underwent sterile abdominal surgery to ligate a 3-4 cm segment of both uterine horns. The test compound in appropriate solvent was injected intraluminally into the ligated segment of one uterine horn and vehicle alone into the other. A stimulating dose of progesterone (267 μg/day) was administered subcutaneously to each rabbit daily for the next three days to induce endometrial proliferation. All animals were sacrificed at day 10 for removal of the uterus where a segment central to the ligatures was removed and fixed in 10% neutral buffered formalin and submitted for histological processing. Five micron sections stained with hematoxylin and cosin were evaluated microscopically for the degree of endometrial glandular proliferation. The percent inhibition of endometrial proliferation for each rabbit was calculated and the mean of the group of five animals recorded. For the Anti-Clauberg test, immature female rabbits received a subcutaneous injection of 5 μg estradiol in 10% ethanol/sesame oil daily for 6 consecutive days. On day 7, animals received progesterone by subcutaneous injection (160 μg/day) and the experimental compound in appropriate vehicle orally or subcutaneously for five consecutive days. One group of rabbits received progesterone only. Twenty-four hours after the last dose, all animals were sacrificed for removal of the uterus which was cleaned of all fat and connective tissue, weighed to the nearest 0.2 mg and placed in 10% neutral buffered formalin for subsequent histological processing. Five micron sections stained with hematoxylin and eosin were evaluated microscopically for the degree of endometrial glandular proliferation. The percent inhibition of endometrial proliferation at each dose level of the test compound was derived by comparison with progesterone-stimulated animals alone. The data presented in Table 1 (rabbit Biol. Act.) reflects the average of the results obtained for each compound by the anti-McGinty and anti-Clauberg assays relative to CDB-2914.

[2] = tested on: pre-menopausal adult women diagnosed with endometriosis; assay: Six month endometriosis study: side effects and bleeding events; type: in vivo, human
Experimental: Although this was a small study and no definitive conclusions can be made from the safety data, there was no single signal of safety observed.
A similar event was not seen at the 50 mg dose during the treatment phase. Greater than normal bleeding occurred in two patients in the 50 mg CDB-4124 group after treatment was stopped and a D&C was performed in one and the other successfully managed conservatively.

[3] = Urinary progesterone levels (luteal phase) in cynomolgus monkeys; type: in vivo, Cynomolgus monkeys (Macaca fascicularis); conditions: n=14 per group; CDB-4124 or RU-486 oral 1.0 mg/kg/day for 36 weeks; Lupron IM once per month
Experimental: (§1) Cynomolgus monkeys (Macaca fascicularis) (n=14) were treated orally for 36 weeks with CDB-4124 or RU-486 at 1.0 mg/kg/day or with placebo (control). Another group (n=14) received Lupron® IM once per month. Urinary progesterone levels were measured for each animal for one month during the middle of the study (weeks 14-17) and for the last month of the study (weeks 33-36).

[4] = Serum cortisol in rats; type: in vivo, rat
Experimental: These higher levels were in the range of 3-4 ug/dl (30-40 ng/ml).

[5] = tested on: Cynomolgus monkey endometrial epithelia, uterus stroma and breast; assay: BrdU incorporation, tissue proliferation in cynomolgus monkeys; type: in vivo, Cynomolgus monkeys (Macaca fascicularis); conditions: week 36, % cells positive for incorporation of BrdU, three animals per group
Experimental: At week 36, three animals from each group of Example 6 were injected within 24 hours of sacrifice with the thymidine analog bromodeoxyuridine (BrdU), a marker of proliferating cells and their progeny, to assess tissue proliferation. Full thickness uterine sections were stained and examined microscopically for evidence of proliferation in terms of the % cells positive for incorporation of BrdU: […]

[6] = tested on: Cynomolgus monkey endometrial epithelium, uterus stroma and breast; assay: TUNEL apoptosis in cynomolgus monkey tissue; type: in vivo, Cynomolgus monkeys (Macaca fascicularis); conditions: week 36, percent apoptotic cells
Experimental: Apoptosis was assessed in tissue from the same animals on slides by the terminal deoxynucleotidyl transferase mediated dUTP-biotin nick end labeling (TUNEL) technique.

[7] = Estrogenic, androgenic, anti-estrogenic and anti-androgenic activities
[8] = Urinary estrogen levels (follicular phase) in cynomolgus monkeys; type: in vivo, Cynomolgus monkeys (Macaca fascicularis); set-up: Urinary estrogen, follicular phase, Mean: unit not given here; conditions: for Urinary estrogen, follicular phase, Mean: CDB-4124 or RU-486 oral 1.0 mg/kg/day, Lupron IM once per month
Experimental: as §1, with “33-36). The results are presented below:” for “33-36).”
Urinary estrogen levels were measured for each animal of Example 6 for one month during the middle of the study (weeks 14-17) and for the last month of the study (weeks 33-36). The follicular phase results are based on 35 baseline ovulating cycles.

COCC(=O)[C@@]1(OC(C)=O)CC[C@H]2[C@@H]3CCC4=CC(=O)CCC4=C3[C@@H](c3ccc(N(C)C)cc3)C[C@@]21C [CDB-4124, 21-methoxy-17α-acetoxy-11β-(4 N,N-dimethylaminophenyl)-19-norpregna-4,9-diene-3,20-dione]
rabbit Biol. Act. ([1]; average of anti-McGinty and anti-Clauberg results relative to CDB-2914 (=1.00)): 3.60 | antiprogestin activity in the rabbit uterus ([1]; in comparison to RU 486 and CDB-2914): strong antiprogestin activity | cases of non-menstrual spotting and bleeding with excessive endometrial thickening needing D&C ([2]; 12.5 mg and 25 mg CDB-4124 groups, treatment phase): two cases | patients with greater than normal bleeding after treatment was stopped ([2]; 50 mg CDB-4124 group): two patients | non-menstrual spotting and bleeding with excessive endometrial thickening needing D&C ([2]; 50 mg dose, treatment phase): not seen | side effects ([2]; women, six month study): generally mild | Decrease in luteal phase progesterone (number of animals) [3]: 8 | No decrease in luteal phase progesterone (number of animals) [3]: 6 | levels of serum cortisol versus control group ([4]; 10 mg/kg, 21 days of chronic dosing): significantly higher | effect of increasing doses on serum cortisol ([4]; FIG. 2): dose-dependent | Breast Brdu-% [5]: 1.9 ± 0.7% | Uterus epithelium Brdu-% [5]: 2.1 ± 2.2% | Uterus stroma Brdu-% [5]: 1.1 ± 0.25% | Breast Apo % [6]: 2.6 ± 0.9% | Uterus epithelium Apo % [6]: 0.5 ± 0.2% | Uterus stroma Apo % [6]: 0.5 ± 0.1% | estrogenic, androgenic, anti-estrogenic, and anti-androgenic activities [7]: lack estrogenic, androgenic, anti-estrogenic, and anti-androgenic activities | Follicular phase estrogen Lower? ([8]; Week 18): No | Urinary estrogen, follicular phase, Mean ([8]; Week 18): 63.8 | Follicular phase estrogen Lower? ([8]; Week 36): No | Urinary estrogen, follicular phase, Mean ([8]; Week 36): 67.3
